Test results taken from publication PMC10410440, “Preclinical PK investigation of a novel IDO1/TDO dual inhibitor—SHR9146 in mouse plasma and tissues by LC-MS/MS” (Frontiers in Oncology, 2023).
“Also recorded” adds a separate entry of the source.

Test: Stability of SHR9146 in mouse plasma, whole blood and post-preparative samples
Format: in vitro ADME
Description: The plasma samples were examined under different conditions, including at room temperature for 6 h, three freeze–thaw cycles, and at −20°C and −70°C for 50 days. Post-preparative plasma samples were studied after being placed at room temperature for 24 h. […] Samples were considered to be stable if the deviations between measured concentration and the spiked values were within ±15%.

[1] = mouse plasma, after three freeze–thaw cycles, QC spiked 0.15 μg/mL, n=3
[2] = mouse plasma, after three freeze–thaw cycles, QC spiked 40 μg/mL, n=3
[3] = mouse plasma, at -70 °C for 50 days, QC spiked 0.15 μg/mL, n=3
[4] = mouse plasma, at -70 °C for 50 days, QC spiked 40 μg/mL, n=3
[5] = mouse plasma, at room temperature for 6 h, QC spiked 0.15 μg/mL, n=3
[6] = mouse plasma, at room temperature for 6 h, QC spiked 40 μg/mL, n=3
[7] = mouse plasma, at −20 °C for 50 days, QC spiked 0.15 μg/mL, n=3
[8] = mouse plasma, at −20 °C for 50 days, QC spiked 40 μg/mL, n=3
[9] = mouse whole blood samples at room temperature for 2 h, QC spiked 0.15 μg/mL, n=3
[10] = mouse whole blood samples at room temperature for 2 h, QC spiked 40 μg/mL, n=3
[11] = post-preparation plasma samples at room temperature for 24 h, QC spiked 0.15 μg/mL, n=3
[12] = post-preparation plasma samples at room temperature for 24 h, QC spiked 40 μg/mL, n=3

With `OCCn1cc(-c2ccc(N3CCC([C@H]4c5c(F)cccc5-c5cncn54)CC3)cc2)cn1` [SHR9146] the “RE” value (mouse plasma samples at room temperature for 6 h, QC levels not separated) was −11.1%, the Measured value [1] was 0.151 ± 0.002 µg/mL and the RE [1] was 1.0%. For the same compound, the Measured value [2] was 40.2 ± 0.33 µg/mL, the RE [2] was 0.6% and the Measured value [3] was 0.151 ± 0.004 µg/mL. For the same compound, the RE [3] was 0.5%, the Measured value [4] was 39.5 ± 0.26 µg/mL and the RE [4] was −1.2%. It also gave a Measured value [5] of 0.133 ± 0.002 µg/mL, an RE [5] of −11.1% and a Measured value [6] of 35.6 ± 0.17 µg/mL. It also gave an RE [6] of −11.1%, a Measured value [7] of 0.148 ± 0.004 µg/mL and an RE [7] of −1.6%. It also gave a Measured value [8] of 39.5 ± 0.11 µg/mL, an RE [8] of −1.2% and a Measured value [9] of 0.145 ± 0.002 µg/mL. It also gave an RE [9] of −0.5%, a Measured value [10] of 39.4 ± 0.22 µg/mL and an RE [10] of −0.1%. It also gave a Measured value [11] of 0.151 ± 0.003 µg/mL, an RE [11] of 0.8% and a Measured value [12] of 40.3 ± 0.09 µg/mL. For the same compound, the RE [12] was 0.8% and the stability in bio-samples (various storage conditions, stable if deviation within ±15%) was “stable in all the tested bio-samples; also recorded: stable under various storage conditions”.
